Values after ≈ are worked out from the molar mass of the structure shown.
Legend:
[1] = Unbound clearance in human microsomes; type: ADME, Microsome
[2] = Solubility in pH 5 FeSSIF at 0.2 mg sonicated for 10 mins followed by incubation for 2 days by HPLC analysis; type: physicochemical
CYP3A4 [3] = biological target: T1, CYP3A4 (Homo sapiens, UniProt P08684); experiment: Inhibition of CYP3A4 in human liver microsomes assessed as residual activity at 10 uM measured immediately relative to control; type: ADME; details: read-out: Activity
T1 sequence (P08684 whole entry): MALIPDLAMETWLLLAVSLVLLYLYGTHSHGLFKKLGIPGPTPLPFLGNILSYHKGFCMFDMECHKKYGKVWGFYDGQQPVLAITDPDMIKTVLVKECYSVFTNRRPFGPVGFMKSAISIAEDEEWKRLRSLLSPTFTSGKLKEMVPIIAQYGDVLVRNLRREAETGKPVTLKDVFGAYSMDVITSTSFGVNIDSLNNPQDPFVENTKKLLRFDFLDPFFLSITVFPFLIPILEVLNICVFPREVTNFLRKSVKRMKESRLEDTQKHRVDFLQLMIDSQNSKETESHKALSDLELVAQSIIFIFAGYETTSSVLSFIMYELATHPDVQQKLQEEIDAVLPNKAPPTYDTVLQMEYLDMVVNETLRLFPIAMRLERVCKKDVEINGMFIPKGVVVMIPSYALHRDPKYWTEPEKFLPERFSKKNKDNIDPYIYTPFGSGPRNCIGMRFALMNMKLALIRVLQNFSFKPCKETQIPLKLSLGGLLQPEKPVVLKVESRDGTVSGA

CYP3A4 [4] = biological target: T1, CYP3A4; experiment: Inhibition of CYP3A4 in human liver microsomes assessed as residual activity at 50 uM measured immediately relative to control; type: ADME; details: read-out: Activity
CYP3A4 [5] = biological target: T1, CYP3A4; experiment: Inhibition of CYP3A4 in human liver microsomes assessed as residual activity at 10 uM measured after 30 mins relative to control; type: ADME; details: read-out: Activity
CYP3A4 [6] = biological target: T1, CYP3A4; experiment: Inhibition of CYP3A4 in human liver microsomes assessed as residual activity at 50 uM measured after 30 mins relative to control; type: ADME; details: read-out: Activity
[7] = biological target: Tyrosine-protein kinase ABL1 (Homo sapiens, UniProt P00519); experiment: Inhibition of ABL (unknown origin) after 60 mins by TR-FRET assay
Tyrosine-protein kinase ABL1, sequence (P00519 whole entry): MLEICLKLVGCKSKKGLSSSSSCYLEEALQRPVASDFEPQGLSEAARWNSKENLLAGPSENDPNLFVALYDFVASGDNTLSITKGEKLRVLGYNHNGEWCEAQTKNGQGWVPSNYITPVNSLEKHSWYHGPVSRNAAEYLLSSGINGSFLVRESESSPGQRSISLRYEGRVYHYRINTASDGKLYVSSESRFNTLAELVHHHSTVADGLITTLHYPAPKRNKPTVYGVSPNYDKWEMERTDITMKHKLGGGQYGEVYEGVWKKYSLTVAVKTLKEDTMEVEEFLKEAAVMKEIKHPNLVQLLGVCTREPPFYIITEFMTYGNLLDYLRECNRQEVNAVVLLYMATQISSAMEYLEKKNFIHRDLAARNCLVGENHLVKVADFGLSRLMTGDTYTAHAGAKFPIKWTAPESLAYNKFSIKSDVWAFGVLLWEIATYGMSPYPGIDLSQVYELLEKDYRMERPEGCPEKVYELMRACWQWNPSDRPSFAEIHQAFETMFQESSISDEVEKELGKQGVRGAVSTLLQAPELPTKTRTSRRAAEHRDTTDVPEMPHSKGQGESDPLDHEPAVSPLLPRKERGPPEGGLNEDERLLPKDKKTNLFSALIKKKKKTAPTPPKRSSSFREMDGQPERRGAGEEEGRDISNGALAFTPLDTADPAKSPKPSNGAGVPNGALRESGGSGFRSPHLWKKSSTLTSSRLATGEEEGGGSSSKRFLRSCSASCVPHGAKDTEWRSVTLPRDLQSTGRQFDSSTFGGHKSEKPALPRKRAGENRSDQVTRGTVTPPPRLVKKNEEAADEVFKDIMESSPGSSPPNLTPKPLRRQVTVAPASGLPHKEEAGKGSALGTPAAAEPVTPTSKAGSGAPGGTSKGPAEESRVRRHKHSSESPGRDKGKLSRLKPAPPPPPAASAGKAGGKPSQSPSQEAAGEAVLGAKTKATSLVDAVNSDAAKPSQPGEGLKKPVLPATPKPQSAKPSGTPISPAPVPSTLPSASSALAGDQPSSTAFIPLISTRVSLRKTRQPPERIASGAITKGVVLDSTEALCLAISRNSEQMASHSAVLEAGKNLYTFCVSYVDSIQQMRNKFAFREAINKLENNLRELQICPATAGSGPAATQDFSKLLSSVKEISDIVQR

[8] = biological target: RAC-alpha serine/threonine-protein kinase (Homo sapiens, UniProt P31749); experiment: Inhibition of AKT (unknown origin) after 60 mins by TR-FRET assay
Aurora kinase B = Aurora kinase B (Homo sapiens, UniProt Q96GD4); experiment: Inhibition of AURKB (unknown origin) after 60 mins by TR-FRET assay
Aurora kinase B, sequence (Q96GD4 whole entry): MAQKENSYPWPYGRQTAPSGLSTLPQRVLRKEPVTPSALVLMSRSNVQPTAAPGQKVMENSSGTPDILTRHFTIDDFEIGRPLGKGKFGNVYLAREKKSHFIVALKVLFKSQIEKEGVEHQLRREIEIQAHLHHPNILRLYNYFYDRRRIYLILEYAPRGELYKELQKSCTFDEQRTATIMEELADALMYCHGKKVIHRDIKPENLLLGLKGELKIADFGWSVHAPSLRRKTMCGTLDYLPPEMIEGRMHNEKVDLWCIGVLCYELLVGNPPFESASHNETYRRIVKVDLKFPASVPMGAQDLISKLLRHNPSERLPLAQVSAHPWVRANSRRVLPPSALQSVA

[9] = biological target: Serine/threonine-protein kinase B-raf (Homo sapiens, UniProt P15056); experiment: Inhibition of BRAF (unknown origin) after 60 mins by TR-FRET assay
[10] = biological target: Calcium/calmodulin-dependent protein kinase kinase 2 (Homo sapiens, UniProt Q96RR4); experiment: Inhibition of CAMKK2 (unknown origin) after 60 mins by TR-FRET assay
Calcium/calmodulin-dependent protein kinase kinase 2, sequence (Q96RR4 whole entry): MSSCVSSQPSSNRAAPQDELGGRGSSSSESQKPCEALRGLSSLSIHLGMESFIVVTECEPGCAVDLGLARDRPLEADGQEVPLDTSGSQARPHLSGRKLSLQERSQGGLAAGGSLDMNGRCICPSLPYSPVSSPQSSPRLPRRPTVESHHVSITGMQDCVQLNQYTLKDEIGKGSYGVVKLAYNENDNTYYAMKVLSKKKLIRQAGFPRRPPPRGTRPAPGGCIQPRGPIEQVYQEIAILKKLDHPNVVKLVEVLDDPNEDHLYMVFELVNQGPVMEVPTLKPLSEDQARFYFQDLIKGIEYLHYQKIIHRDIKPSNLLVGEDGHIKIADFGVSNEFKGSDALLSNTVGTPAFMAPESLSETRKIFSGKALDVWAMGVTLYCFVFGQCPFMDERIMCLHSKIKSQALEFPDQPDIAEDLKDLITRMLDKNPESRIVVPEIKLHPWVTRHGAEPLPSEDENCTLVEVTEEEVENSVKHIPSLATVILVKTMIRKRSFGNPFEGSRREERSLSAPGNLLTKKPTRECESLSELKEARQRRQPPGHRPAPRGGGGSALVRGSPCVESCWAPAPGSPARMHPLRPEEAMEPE

[11] = biological target: Cyclin-dependent kinase 2 (Homo sapiens, UniProt P24941); experiment: Inhibition of CDK2 (unknown origin) after 60 mins by TR-FRET assay
[12] = Inhibition of CDK11 (unknown origin) after 60 mins by TR-FRET assay; set-up: species or system Homo sapiens
[13] = biological target: Epithelial discoidin domain-containing receptor 1 (Homo sapiens, UniProt Q08345); experiment: Inhibition of DDR1 (unknown origin) after 60 mins by TR-FRET assay
[14] = biological target: Epidermal growth factor receptor (Homo sapiens, UniProt P00533); experiment: Inhibition of EGFR (unknown origin) after 60 mins by TR-FRET assay
[15] = biological target: Dual specificity mitogen-activated protein kinase kinase 3 (Homo sapiens, UniProt P46734); experiment: Inhibition of MAP2K3 (unknown origin) after 60 mins by TR-FRET assay
[16] = biological target: Mitogen-activated protein kinase kinase kinase 10 (Homo sapiens, UniProt Q02779); experiment: Inhibition of MAP3K10 (unknown origin) after 60 mins by TR-FRET assay
[17] = biological target: Dual specificity mitogen-activated protein kinase kinase 2 (Homo sapiens, UniProt P36507); experiment: Inhibition of MEK2 (unknown origin) after 60 mins by TR-FRET assay
Dual specificity mitogen-activated protein kinase kinase 2, sequence (P36507 whole entry): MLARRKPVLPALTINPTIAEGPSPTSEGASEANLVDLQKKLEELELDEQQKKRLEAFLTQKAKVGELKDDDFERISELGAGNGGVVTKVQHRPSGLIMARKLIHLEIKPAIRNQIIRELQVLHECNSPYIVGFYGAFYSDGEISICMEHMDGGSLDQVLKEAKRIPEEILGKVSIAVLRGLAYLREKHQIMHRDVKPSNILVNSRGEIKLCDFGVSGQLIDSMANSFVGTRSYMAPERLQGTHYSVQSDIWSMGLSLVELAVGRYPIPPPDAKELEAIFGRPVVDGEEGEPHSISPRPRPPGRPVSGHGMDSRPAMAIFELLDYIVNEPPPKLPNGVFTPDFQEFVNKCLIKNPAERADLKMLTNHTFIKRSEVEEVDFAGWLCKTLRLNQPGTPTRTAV

[18] = biological target: Serine/threonine-protein kinase pim-2 (Homo sapiens, UniProt Q9P1W9); experiment: Inhibition of PIM2 (unknown origin) after 60 mins by TR-FRET assay
[19] = Inhibition of PKA (unknown origin) after 60 mins by TR-FRET assay
[20] = biological target: Protein kinase C theta type (Homo sapiens, UniProt Q04759); experiment: Inhibition of PKCtheta (unknown origin) after 60 mins by TR-FRET assay
Protein kinase C theta type, sequence (Q04759 whole entry): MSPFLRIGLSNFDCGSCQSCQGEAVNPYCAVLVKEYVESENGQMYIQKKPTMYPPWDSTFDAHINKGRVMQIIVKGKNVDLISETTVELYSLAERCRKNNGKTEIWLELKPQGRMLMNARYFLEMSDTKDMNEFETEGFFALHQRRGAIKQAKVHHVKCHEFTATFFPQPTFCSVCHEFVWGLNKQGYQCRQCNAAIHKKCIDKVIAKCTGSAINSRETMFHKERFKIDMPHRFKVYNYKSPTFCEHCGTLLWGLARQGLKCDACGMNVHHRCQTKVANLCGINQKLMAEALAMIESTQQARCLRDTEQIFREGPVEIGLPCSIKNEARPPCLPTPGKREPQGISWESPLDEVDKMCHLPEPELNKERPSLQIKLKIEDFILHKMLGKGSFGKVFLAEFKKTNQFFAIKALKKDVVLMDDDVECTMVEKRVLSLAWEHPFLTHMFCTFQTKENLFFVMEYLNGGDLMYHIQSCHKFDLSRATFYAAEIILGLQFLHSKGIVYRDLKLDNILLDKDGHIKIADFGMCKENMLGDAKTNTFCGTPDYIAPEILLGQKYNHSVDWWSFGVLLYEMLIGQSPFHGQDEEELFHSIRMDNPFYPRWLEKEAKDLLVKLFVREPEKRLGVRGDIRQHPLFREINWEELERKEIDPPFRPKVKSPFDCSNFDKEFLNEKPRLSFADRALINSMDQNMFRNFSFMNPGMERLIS

[21] = biological target: Protein kinase C zeta type (Homo sapiens, UniProt Q05513); experiment: Inhibition of PKCzeta (unknown origin) after 60 mins by TR-FRET assay
[22] = biological target: cGMP-dependent protein kinase 1 (Homo sapiens, UniProt Q13976); experiment: Inhibition of PKG1A (unknown origin) after 60 mins by TR-FRET assay
[23] = biological target: Serine/threonine-protein kinase Sgk1 (Homo sapiens, UniProt O00141); experiment: Inhibition of SGK1 (unknown origin) after 60 mins by TR-FRET assay
[24] = biological target: Proto-oncogene tyrosine-protein kinase Src (Homo sapiens, UniProt P12931); experiment: Inhibition of SRC (unknown origin) after 60 mins by TR-FRET assay
[25] = biological target: Serine/threonine-protein kinase 16 (Homo sapiens, UniProt O75716); experiment: Inhibition of STK16 (unknown origin) after 60 mins by TR-FRET assay
Serine/threonine-protein kinase 16, sequence (O75716 whole entry): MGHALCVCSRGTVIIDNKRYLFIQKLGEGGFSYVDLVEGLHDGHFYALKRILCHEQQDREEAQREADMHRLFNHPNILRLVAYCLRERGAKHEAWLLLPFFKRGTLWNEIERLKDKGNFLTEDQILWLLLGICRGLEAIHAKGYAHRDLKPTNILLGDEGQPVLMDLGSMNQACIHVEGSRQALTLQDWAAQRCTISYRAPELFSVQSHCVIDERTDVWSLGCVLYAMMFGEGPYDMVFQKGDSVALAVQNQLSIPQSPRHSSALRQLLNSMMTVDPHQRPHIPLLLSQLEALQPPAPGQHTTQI

[26] = biological target: NT-3 growth factor receptor (Homo sapiens, UniProt Q16288); experiment: Inhibition of TrkC (unknown origin) after 60 mins by TR-FRET assay
NT-3 growth factor receptor, sequence (Q16288 whole entry): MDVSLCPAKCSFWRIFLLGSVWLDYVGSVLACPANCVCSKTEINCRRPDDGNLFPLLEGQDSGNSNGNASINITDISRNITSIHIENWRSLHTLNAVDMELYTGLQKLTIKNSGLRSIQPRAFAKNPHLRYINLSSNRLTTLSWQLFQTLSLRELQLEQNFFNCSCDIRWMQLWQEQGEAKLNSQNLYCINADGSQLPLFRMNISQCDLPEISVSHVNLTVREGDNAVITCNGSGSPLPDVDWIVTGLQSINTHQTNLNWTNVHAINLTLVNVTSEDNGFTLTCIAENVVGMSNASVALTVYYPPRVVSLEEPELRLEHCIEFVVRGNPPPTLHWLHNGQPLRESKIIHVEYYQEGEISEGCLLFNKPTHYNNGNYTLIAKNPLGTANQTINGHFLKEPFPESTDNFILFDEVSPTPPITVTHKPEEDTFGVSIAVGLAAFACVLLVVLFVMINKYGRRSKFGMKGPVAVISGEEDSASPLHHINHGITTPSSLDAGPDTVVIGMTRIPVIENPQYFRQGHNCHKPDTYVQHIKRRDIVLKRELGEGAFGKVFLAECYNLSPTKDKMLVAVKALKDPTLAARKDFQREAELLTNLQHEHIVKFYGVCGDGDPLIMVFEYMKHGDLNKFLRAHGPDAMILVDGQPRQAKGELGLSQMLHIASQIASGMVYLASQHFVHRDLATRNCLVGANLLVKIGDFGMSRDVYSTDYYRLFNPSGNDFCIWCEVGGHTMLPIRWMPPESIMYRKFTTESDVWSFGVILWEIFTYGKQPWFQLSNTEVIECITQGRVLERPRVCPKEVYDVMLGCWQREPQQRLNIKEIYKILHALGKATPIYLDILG

[27] = biological target: Tyrosine-protein kinase SYK (Homo sapiens, UniProt P43405)
Description: Inhibition of C-terminal His-tagged Syk catalytic domain (356 to 635 residues) (unknown origin) using biotin-TYR1 as substrate after 60 mins by TR-FRET assay

Cytochrome P450 3A4 = Cytochrome P450 3A4 (Homo sapiens, UniProt P08684); experiment: Time-dependent inhibition of CYP3A4 in human liver microsomes at 10 to 50 uM; type: ADME
Cytochrome P450 3A4, sequence (P08684 whole entry): as the sequence (P08684 whole entry) above

[28] = biological target: T2, Dual specificity protein kinase TTK (Homo sapiens, UniProt P33981); experiment: Inhibition of TTK (unknown origin) after 60 mins by TR-FRET assay
T2 sequence (P33981 whole entry): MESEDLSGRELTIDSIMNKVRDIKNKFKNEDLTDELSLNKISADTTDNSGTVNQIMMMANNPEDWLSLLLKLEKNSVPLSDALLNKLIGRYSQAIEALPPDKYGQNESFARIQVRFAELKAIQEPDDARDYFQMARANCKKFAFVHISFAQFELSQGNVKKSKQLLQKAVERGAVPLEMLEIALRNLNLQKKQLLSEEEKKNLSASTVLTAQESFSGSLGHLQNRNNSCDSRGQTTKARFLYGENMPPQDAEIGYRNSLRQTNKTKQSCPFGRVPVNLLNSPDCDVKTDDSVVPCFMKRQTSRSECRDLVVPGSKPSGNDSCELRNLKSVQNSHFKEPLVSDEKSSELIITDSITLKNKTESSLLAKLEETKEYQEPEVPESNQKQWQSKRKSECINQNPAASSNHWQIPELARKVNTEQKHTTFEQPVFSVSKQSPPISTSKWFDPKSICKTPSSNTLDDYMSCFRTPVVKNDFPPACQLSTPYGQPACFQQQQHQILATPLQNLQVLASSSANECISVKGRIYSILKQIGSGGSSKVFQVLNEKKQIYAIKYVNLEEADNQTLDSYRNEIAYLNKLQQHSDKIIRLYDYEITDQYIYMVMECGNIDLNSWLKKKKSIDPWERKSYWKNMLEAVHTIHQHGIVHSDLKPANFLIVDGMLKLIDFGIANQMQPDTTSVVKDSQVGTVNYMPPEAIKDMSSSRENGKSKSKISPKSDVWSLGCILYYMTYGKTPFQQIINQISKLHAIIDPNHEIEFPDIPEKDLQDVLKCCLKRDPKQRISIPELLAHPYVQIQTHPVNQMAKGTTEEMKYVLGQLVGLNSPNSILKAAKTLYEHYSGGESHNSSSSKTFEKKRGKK

Row | solubility at 48 h [2] [µM] | activity at 0 min, 10 µM (CYP3A4 [3]) [%] | activity at 0 min, 50 µM (CYP3A4 [4]) [%] | activity at 0.5 h, 10 µM (CYP3A4 [5]) [%] | activity at 0.5 h, 50 µM (CYP3A4 [6]) [%] | IC50 [7] [µM] | IC50 (Aurora kinase B) [µM] | IC50 [17] [µM] | IC50 [19] [µM] | IC50 [20] [µM] | IC50 [25] [µM] | IC50 [26] [µM] | IC50 [27] [µM] | IC50 [28] [µM] | Compound | further results
1 | 4.96 (≈ 2.09 µg/mL) | 91 | 92 | 81 | 75 | 0.408 | > 10 | > 10 | > 10 | > 10 | 0.885 | 7.7 | – | – | CC1(C)OCC(=O)Nc2cc(Nc3nc(NCC(F)(F)F)c4occc4n3)ccc21 | CL free [1]: 170 mL/min/kg; IC50 [8]: > 10 µM; IC50 [9]: > 10 µM; IC50 [10]: 1.91 µM; IC50 [11]: > 10 µM; IC50 [12]: > 10 µM; IC50 [13]: > 10 µM; IC50 [14]: > 10 µM; IC50 [15]: > 10 µM; IC50 [16]: 4.55 µM; IC50 [18]: > 10 µM; IC50 [21]: > 10 µM; IC50 [22]: > 10 µM; IC50 [23]: > 10 µM; IC50 [24]: 0.156 µM
2 | – | – | – | – | – | – | > 10 | > 10 | > 10 | – | – | > 10 | 0.081 | – | FC(F)(F)CNc1nc(Nc2ccc3cn[nH]c3c2)nc2ccoc12 | –
3 | 99 (≈ 31.7 µg/mL) | 94 | 87 | 51 | 28 | – | > 10 | > 10 | > 10 | > 10 | 4.5 | > 10 | – | 2.16 | Cc1n[nH]c2cc(Nc3nc(NC4CC4)c4occc4n3)ccc12 | TDI (Cytochrome P450 3A4): Active
4 | – | – | – | – | – | 2.75 | > 10 | > 10 | > 10 | > 10 | – | > 10 | 0.061 | 1.84 | FC(F)(F)CNc1nc(Nc2ccc(N3CCOCC3)c(Cl)c2)nc2ccoc12 | –
